# Experimental data published in patent US5614534A, “Derivatives of β, β-dimethyl-4-piperidineethanamine as inhibitors of the cholesterol biosynthesis” (Fournier Industrie et Sante, priority 1993, dated 1997).
# Molecular target: T1, epoxysqualene cyclase (Rattus norvegicus, UniProt P48450)
# T1 construct: Rat hepatic microsomes were used as the source of the enzyme; from tissue; host or cells: liver microsomes of male Wistar rats
# T1 sequence (P48450 1-733): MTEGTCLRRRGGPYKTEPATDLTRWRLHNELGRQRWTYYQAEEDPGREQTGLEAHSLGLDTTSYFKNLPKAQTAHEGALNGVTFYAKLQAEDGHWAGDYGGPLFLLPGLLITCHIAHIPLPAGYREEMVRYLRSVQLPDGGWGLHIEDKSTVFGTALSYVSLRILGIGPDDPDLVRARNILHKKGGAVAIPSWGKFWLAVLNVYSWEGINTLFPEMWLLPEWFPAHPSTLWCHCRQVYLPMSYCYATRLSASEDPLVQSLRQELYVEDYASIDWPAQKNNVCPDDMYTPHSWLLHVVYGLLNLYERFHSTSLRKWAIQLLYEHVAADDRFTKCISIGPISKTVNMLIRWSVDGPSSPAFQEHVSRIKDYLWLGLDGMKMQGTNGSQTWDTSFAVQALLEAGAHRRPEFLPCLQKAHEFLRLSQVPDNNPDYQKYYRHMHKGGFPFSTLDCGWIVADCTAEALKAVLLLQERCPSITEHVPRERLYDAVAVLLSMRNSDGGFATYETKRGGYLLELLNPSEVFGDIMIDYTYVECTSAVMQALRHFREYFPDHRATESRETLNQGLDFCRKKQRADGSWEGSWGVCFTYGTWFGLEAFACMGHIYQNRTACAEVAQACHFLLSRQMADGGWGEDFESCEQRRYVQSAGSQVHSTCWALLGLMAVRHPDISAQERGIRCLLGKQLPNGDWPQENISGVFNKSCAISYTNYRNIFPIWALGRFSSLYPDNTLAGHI
# Assay: inhibition of epoxysqualene cyclase in rat hepatic microsomes (lanosterol formed from (R,S)-2,3-oxydosqualene)
# Assay type: biochemical, male Wistar rats
# Details: 25.10^-6 moles per liter of tested product; 150 μM (R,S)-2,3-oxydosqualene, 60 minutes at 37° C., pH=7.4; read-out: Inhibition percentage (of the quantity of lanosterol formed)
# Method: The activity of the Compounds of the invention was evaluated by the observation of an inhibiting effect on epoxysqualene cyclase in the hepatic microsomes of male Wistar rats.
# The method consisted of measuring the lanosterol formed from R,S-2,3-oxydosqualene by the microsomal enzyme. The enzyme was prepared using the method described by G. C. Ness (G. C. Ness et. al., Biochem. J., (1986), 233, 167-172).
# Method for Measuring the Activity of Epoxysqualene Cyclase
# Rat hepatic microsomes were used as the source of the enzyme. The method consisted in measuring the lanosterol formed from (R,S)-2,3-oxydosqualene.The (R,S)-2,3-oxydosqualene, the products to be tested and TWEEN® 80 in organic solution (2-propanone or sulphinyl bis-methane) (25 μl) were placed in test tubes and 400 μl of potassium buffer (0.1M, pH=7.4) was added. The reaction was initiated by adding 100 μl of the microsomes. In a final reaction volume of 525 μl, the mixture contained 150 μM of (R,S)-2,3-oxydosqualene, 0.1% of TWEEN® 80 (to dissolve the (R,S)-2,3-oxydosqualene) and 250 μg of microsomal proteins. The reaction time was 60 minutes at 37° C. The reaction was stopped by addition of 300 μl of methanolic potassium hydroxide (7%) and 20 μg of stigmasterol as an internal standard. After saponification at 80° C. for 30 minutes and stirring using a rotary stirrer, the sterols were extracted with 2 ml of hexane. The lanosterol formed was separated from the (R,S)-2,3-oxydosqualene, the membranal cholesterol and the stigmasterol by gas phase chromatography after transformation to the trimethylsilyl ethers. Derivatisation of the sterols was carried out at 60° C. for 30 minutes after addition of 25 μl of pyridine and 75 μl of the trimethylsilyl ester of 2,2,2-trifluoro-N-trimethylsily-ethanimidic acid containing 1% of trimethylchlorosilane ethers.
# After evaporation, the trimethylsilyl ethers were taken up into solution in 100 μl of hexane. An aliquot of this solution (2 μl) was gas chromatographed on a OV1 capillary column (0.32 mm, 25 m) under the following conditions: injection temperature=270° C., furnace temperature=260° C., detector temperature=300° C.; the vector gas was nitrogen at a pressure of 7.10^4 Pa.
# The potency of the molecules tested was expressed as the percentage inhibition of the quantity of lanosterol formed for a concentration of 25.10^-6 moles per liter of product tested.
row,Compound,inhibition [%]
1,"CCCCCCCCCCC(=O)N1CCC(C(C)(C)CN(C)C)CC1 [Example 19, 1-undecanoyl-N,N,β,β-tetramethyl-4-piperidineethanamine]",100
2,"CCCCCCCCCCCCN1CCC(C(C)(C)CN(C)C(C)=O)CC1 [Example 10, N-methyl-N-[2-methyl-2-[(1-dodecyl)-4-piperidinyl]propyl]acetamide]",66
3,"CN(C)CC(C)(C)C1CCN(CCCCCC(C)(C)C)CC1 [Example 17, 1-(6,6-dimethyl-heptyl)-N,N,β,β-tetramethyl-4-piperidineethanamine]",100
4,"CN(C)CC(C)(C)C1CCN(C(=O)CCCCCCCCCCn2ccnc2)CC1 [Example 20, 1-[(11-imidazolyl)undecanoyl]-N,N,β,β-tetramethyl-4-piperidineethanamine]",100
5,CCOC(=O)CCCN1CCC(C(C)(C)CN(C)C)CC1 [Example 25],81
6,"CN(C)CC(C)(C)C1CCN(CC=Cc2ccccc2)CC1 [Example 31, 1-(3-phenylpropenyl)-N,N,β,β-tetramethyl-4-piperidineethanamine]",99
7,"CC(C)Cc1ccc(C(C)CN2CCC(C(C)(C)CN(C)C)CC2)cc1 (stereo not drawn) [Example 32, 1-[2-[4-(2-methylpropyl)phenyl]-2-methylethyl]-N,N,β,β-tetramethyl-4-piperidineethanamine]",95
8,"CN(C)CC(C)(C)C1CCN(CC(C)(C)Oc2ccc(Cl)cc2)CC1 [Example 30, 1-[2-(4-chlorophenoxy)-2,2-dimethyl-ethyl]-N,N,β,β-tetramethyl-4-piperidineethanamine]",92
9,"CN(C)CC(C)(C)C1CCN(C(=O)C(C)(C)Oc2ccc(Cl)cc2)CC1 [Example 29, 1-[2-(4-chlorophenoxy)-2,2-dimethyl-ethanoyl]-N,N,β,β-tetramethyl-4-piperidineethanamine]",95
10,"CC(C)CCCNC(=O)CCCN1CCC(C(C)(C)CN(C)C)CC1 [Example 26, N-(4-methylpentyl)-4-[2-(1-dimethylamino-2-methyl)propyl]-1-piperidinebutanamide]",100
11,"CN(C)CC(C)(C)C1CCN(CCCCCCCCCCCn2ccnc2)CC1 [Example 21, 1-[(11-imidazolyl)undecyl]-N,N,β,β-tetramethyl-4-piperidineethanamine]",100
12,"CCCCCCCCCCCCN1CCC(C(C)(C)CN(C)C)CC1 [Example 2, 1-dodecyl-N,N,β,β-tetramethyl-4-piperidineethanamine]",97

# More lines, now with the values ahead:
row,inhibition [%],Compound
1,96,"CCCCCCCCCCCCN1CCC(C(C)(C)CNCC)CC1 [Example 9, 1-dodecyl-N-ethyl,β,β-dimethyl-4-piperidineethanamine]"
2,58,"CCCCCCCCCCCCN1CCC(C(C)(C)CNC(C)=O)CC1 [Example 11, N-[2-methyl-2-[(1-dodecyl)-4-piperidinyl]propyl]-N-acetamide]"
3,48,"CC(C)=CCN1CCC(C(C)(C)CN(C)C)CC1 [Example 14, 1-(3,3-dimethylpropen-2-yl)-N,N,β,β-tetramethyl-4-piperidineethanamine]"
4,64,"C=CCN1CCC(C(C)(C)CN(C)C)CC1 [Example 13, 1-(2-propenyl)-N,N,β,β-tetramethyl-4-piperidineethanamine]"
5,87,"CN(C)CC(C)(C)C1CCN(C(=O)C=Cc2ccccc2)CC1 [Example 28, 1-(3-phenylpropenoyl)-N,N,β,β-tetramethyl-4-piperidineethanamine]"
6,63,"CCCCCCCCCCCCN1CCC(C(C)(C)CN(CC)CC)CC1 [Example 4, 1-dodecyl-N,N-diethyl,β,β-dimethyl-4-piperidineethanamine]"
7,40,"CCCCCCCCCCCCN1CCC(C(C)(C)CN2CCCCC2)CC1 [Example 15, 1-[[2-[4-(1-dodecylpiperidinyl)]-2-methyl]propyl]piperidine]"
8,100,"CCCCCCCCCCCC(=O)N1CCC(C(C)(C)C[N+](C)(C)C)CC1 [Example 27, 1-[(1-undecyl)carbonyl]-N,N,N,β,β-pentamethyl-4-piperidinethanaminium Iodide]"
9,100,"CN(C)CC(C)(C)C1CCN(C/C=C/C#CC(C)(C)C)CC1 [Example 16, (E)-1-(6,6-dimethyl-2-hepten-4-yn-1-yl)-N,N,β,β-tetramethyl-4-piperidineethanamine]"
10,100,"CC(Cc1ccc(C(C)C)cc1)CN1CCC(C(C)(C)CN(C)C)CC1 (stereo not drawn) [Example 18, 1-[3-[4-(methylethyl)phenyl]-2-methyl-propyl]-N,N,β,β-tetramethyl-4-piperidineethanamine]"
11,93,"CC(C)CCCC(=O)NCCCN1CCC(C(C)(C)CN(C)C)CC1 [Example 24, N-[[4-[2-(1-dimethylamino-2-methyl)propyl]-1-piperidinyl]-1-propyl]-5-methylhexanamide]"
12,75,"CCCCCCCCCCCCN1CCC(C(C)(C)CN)CC1 [Example 1, 1-dodecyl-β,β-dimethyl-4-piperidineethanamine]"
